In patent US20250326708A1, “LONG-ACTING SPLEEN-TARGETING CATIONIC LIPID COMPOUND COMPRISING BENZENE RING STRUCTURE, COMPOSITION COMPRISING SAME, AND USE THEREOF” (Beijing Youcarekechuang Pharmaceutical Technology Co., Ltd., priority 2024, published 2025):
“And” between values parts separate entries of the source, which are not always exact repeats. Identical values can stand only once.

Columns and labels:
[1] = Particle size and polydispersity index (PDI) of lipid nanoparticles, dynamic light scattering; assay type: physicochemical; conditions: LNP preparation with the named cationic lipid; 90° scattering angle, 25° C
Excerpt: (§1) The cationic lipids listed in Table 2 were each mixed with DSPC (AVT (Shanghai) Pharmaceutical Technology Co., Ltd.), cholesterol (AVT (Shanghai) Pharmaceutical Technology Co., Ltd.), and DMG-PEG2000 in a molar ratio of 49:10:39.5:1.5 and dissolved in ethanol to prepare ethanol lipid solutions. Using the ethanol injection method, the ethanol lipid solutions were quickly added to a citrate buffer (pH between 4 and 5), and vortexed for 30 seconds for later use. eGFP-mRNA (purchased from Shanghai BioHub Biotechnology Co., Ltd.), Fluc-mRNA (purchased from Shanghai BioHub Biotechnology Co., Ltd.), or Cy5 fluorescently labeled Leqvio (purchased from Sangon Biotech (Shanghai) Co., Ltd.) was diluted in a citrate buffer (pH between 4 and 5) to obtain an mRNA aqueous solution. A certain volume of the lipid solution and the mRNA aqueous solution were mixed to prepare liposomes at a total lipid-to-mRNA weight ratio of 15:1. The mixtures were sonicated at 25° C. for 15 minutes (ultrasonic frequency: 40 kHz, ultrasonic power: 800 W). The resulting liposomes were diluted 10-fold with PBS, followed by ultrafiltration using a 300 kDa ultrafiltration tube to remove ethanol. After adjusting the volume with PBS, LNP preparations encapsulating eGFP-mRNA or Fluc-mRNA were obtained, using cationic lipids, DSPC, cholesterol, and DMG-PEG2000 at a molar ratio of 49:10:39.5:1.5.
The particle size and polydispersity index (PDI) were measured using dynamic light scattering with a Malvern laser diffraction particle size analyzer.
10 μL of liposome solution was diluted to 1 mL with RNase-free deionized water and added to the sample cell. Each sample was measured three times. The measurement conditions were as follows: 90° scattering angle, 25° C.

293T cells [2] = test: Fluorescence detection of Fluc-mRNA (transfection efficiency) of LNP preparations; assay type: cell-based; conditions: for Cellular transfection efficiency, times that of HHMA: vs HHMA; for Cellular transfection efficiency, times that of I-1: vs I-1; for Cellular transfection efficiency, times that of Lipofectamine 3000: vs Lipofectamine 3000; for Cellular transfection efficiency, times that of MC3: vs MC3; for Cellular transfection efficiency, times that of SM-102: vs SM-102; for Cellular transfection efficiency, times that of YK-501: vs YK-501; for Cellular transfection efficiency, times that of YK-506: vs YK-506; for Cellular transfection efficiency, times that of compound 7: vs compound 7; for Relative light unit (RLU): LNP with 0.3 μg Fluc-mRNA, 96-well plate, 24 hours
Description: (§2) Cell recovery and passage: 293T cells were recovered and cultured in culture dishes. The cells were passaged until the required number of cells was obtained.
(§3) Seeding plates: The cells in culture dishes were digested and counted, then seeded in a 96-well plate at 10,000 cells per well and seeded in a 12-well plate at 150,000 cells per well. The cells were cultured overnight until cell adhesion.
as §1
(§4) Cell recovery and passage: The method was the same as described in Example 3.
(§5) Seeding plates: The method was the same as described in Example 3.
LNP preparations containing 0.3 μg of Fluc-mRNA (with the vector components of the LNP preparations of cationic lipids, DSPC, cholesterol, and DMG-PEG2000 in a molar ratio of 49:10:39.5:1.5, where the cationic lipids are those listed in Table 1) were added to the cell culture medium in a 96-well plate. After 24 hours of continued culture, the corresponding reagents were added according to the instructions in the Gaussia Luciferase Assay Kit. Fluorescence intensity in each well was detected using the IVIS fluorescence detection system. The transfection efficiency of LNP preparations prepared with a series of cationic lipid compounds designed in the present disclosure, as well as cationic lipids from the prior art, including SM-102, HHMA, MC3, compound 7, and I-1, is shown in Table 4.

293T cells [3] = test: Cell viability assay (CCK-8) with LNP preparations of Fluc-mRNA; assay type: cell-based; conditions: for Cell viability: LNP with 1.5 μg Fluc-mRNA, 24 hours, CCK-8
Description: as §2, §3, §1, §4, §5
LNP preparations containing 1.5 μg of Fluc-mRNA (with the vector components of the LNP preparations of cationic lipids, DSPC, cholesterol, and DMG-PEG2000 in a molar ratio of 49:10:39.5:1.5, where the cationic lipids are those listed in Table 1) were added to the cell culture medium in a 96-well plate. After 24 hours of continued culture, 10 μL of CCK-8 solution was added to each well, and the culture plate was incubated in an incubator for 1 hour.

female BALB/C mice [4] = test: Expression of delivered mRNA in mice in vivo (IVIS in vivo imaging); conditions: 10 μg Fluc-mRNA via tail vein
Description: LNP preparations containing 10 μg of Fluc-mRNA were injected via the tail vein into female BALB/C mice (4 to 6 weeks old, weighing 17 to 19 g). At specified time points after administration (6 h, 24 h, 48 h, and 7 d), the mice were intraperitoneally injected with fluorescent imaging substrates and allowed to move freely for 5 minutes. The average radiation intensity (corresponding to fluorescence intensity) of proteins expressed by the mRNA delivered by the LNP preparations in the mice in vivo was then detected using the IVIS Spectrum small-animal in vivo imaging system.

female BALB/C mice [5] = test: Expression of delivered mRNA in different organs of mice (organ imaging); assay type: in vivo; conditions: for Average radiation intensity of mouse organs: Heart / Average radiation intensity of mouse organs: Kidney / Average radiation intensity of mouse organs: Lung / Average radiation intensity of mouse organs: Lymph / Average radiation intensity of mouse organs: Spleen / Average radiation intensity of mouse organs: Liver: 6 hours after 5 μg Fluc-mRNA subcutaneously; for Expression level of mRNA in the spleen, times that of SM-102: vs SM-102; for Expression level of mRNA in the spleen, times that of YK-501: vs YK-501; for Expression level of mRNA in the spleen, times that of YK-506: vs YK-506
Description: LNP preparations containing 5 μg of Fluc-mRNA were subcutaneously injected into female BALB/C mice (4 to 6 weeks old, weighing 17 to 19 g). At specified time points after administration (6 h), the mice were intraperitoneally injected with fluorescent imaging substrates and allowed to move freely for 5 minutes. The average radiation intensity (corresponding to fluorescence intensity) of proteins expressed by the mRNA delivered by the LNP preparations in the mice in vivo was then detected using the IVIS Spectrum small-animal in vivo imaging system. After sampling, the mice were killed by cervical dislocation and dissected, and the internal organs: heart, liver, spleen, lung, kidney, and lymph of mice were accurately isolated. The average radiation intensity (corresponding to fluorescence intensity) of proteins expressed by the mRNA delivered by the LNP preparations in various organs of mice was then detected using the IVIS Spectrum small-animal in vivo imaging system.

Row | PDI [1] [%] | Particle size [1] [nm] | Structure (SMILES) | Cellular transfection efficiency, times that of HHMA (293T cells [2]; Fluc-mRNA LNP) [times] | Cellular transfection efficiency, times that of I-1 (293T cells [2]; Fluc-mRNA LNP) [times] | Cellular transfection efficiency, times that of Lipofectamine 3000 (293T cells [2]; Fluc-mRNA LNP) [times] | Cellular transfection efficiency, times that of MC3 (293T cells [2]; Fluc-mRNA LNP) [times] | Cellular transfection efficiency, times that of SM-102 (293T cells [2]; Fluc-mRNA LNP) [times] | Cellular transfection efficiency, times that of YK-501 (293T cells [2]; Fluc-mRNA LNP) [times] | Cellular transfection efficiency, times that of YK-506 (293T cells [2]; Fluc-mRNA LNP) [times] | Cell viability (293T cells [3]) [%] | Average radiation intensity, in vivo imaging (female BALB/C mice [4]; 6 h) | Average radiation intensity, in vivo imaging (female BALB/C mice [4]; 24 h) | Average radiation intensity, in vivo imaging (female BALB/C mice [4]; 48 h) | Average radiation intensity, in vivo imaging (female BALB/C mice [4]; 7 d) | Average radiation intensity of mouse organs: Heart (female BALB/C mice [5]) | Average radiation intensity of mouse organs: Kidney (female BALB/C mice [5]) | Average radiation intensity of mouse organs: Lung (female BALB/C mice [5]) | Average radiation intensity of mouse organs: Lymph (female BALB/C mice [5]) | Average radiation intensity of mouse organs: Spleen (female BALB/C mice [5]) | Average radiation intensity of mouse organs: Liver (female BALB/C mice [5]) | other results
1 | 9.5 | 123 | CCCCCCCCCCC(CCCCCCCC)COC(=O)CCCCCNC(CO)(CO)CCc1ccc(CCCCCCCC)cc1 (centres unmarked) [YK-912, 2-octyldodecyl 6-((1-hydroxy-2-(hydroxymethyl)-4-(4-octylphenyl)butan-2-yl)amino) hexanoate] | 5.65 | 28.16 | 6.77 | 60.16 | 4.00 | 123.46 | 8.73 | 87 | 7543664 | 932533 | 354363 | 56756 | 0 | 0 | 0 | 0 | 175366 |  | Cellular transfection efficiency, times that of YK-901 (293T cells [2]; Fluc-mRNA LNP, vs YK-901): 131 times and 131.47 times; Cellular transfection efficiency, times that of YK-902 (293T cells [2]; Fluc-mRNA LNP, vs YK-902): 18.35 times; Cellular transfection efficiency, times that of YK-903 (293T cells [2]; Fluc-mRNA LNP, vs YK-903): 228 times and 228.30 times; Cellular transfection efficiency, times that of YK-904 (293T cells [2]; Fluc-mRNA LNP, vs YK-904): 45.65 times; Cellular transfection efficiency, times that of YK-905 (293T cells [2]; Fluc-mRNA LNP, vs YK-905): 78.83 times; Cellular transfection efficiency, times that of YK-911 (293T cells [2]; Fluc-mRNA LNP, vs YK-911): 4.39 times; Cellular transfection efficiency, times that of compound 7 (293T cells [2]; Fluc-mRNA LNP): 22.17 times; Cell viability higher than that of YK-901 (293T cells [3]; difference vs YK-901): 29%; Cell viability higher than that of YK-902 (293T cells [3]; difference vs YK-902): 51%; Cell viability higher than that of YK-903 (293T cells [3]; difference vs YK-903): 40%; Cell viability higher than that of YK-904 (293T cells [3]; difference vs YK-904): 35%; Cell viability higher than that of YK-905 (293T cells [3]; difference vs YK-905): 36%; Cell viability higher than that of YK-911 (293T cells [3]; difference vs YK-911): 25%; Expression level of mRNA in the spleen, times that of SM-102 (female BALB/C mice [5]; 6 h): 6.86 times; Expression level of mRNA in the spleen, times that of YK-501 (female BALB/C mice [5]; 6 h): 12.33 times; Expression level of mRNA in the spleen, times that of YK-506 (female BALB/C mice [5]; 6 h): 2.46 times
2 | 13.3 | 144 | CCCCCCCCCCOC(=O)CCCN1CCN(CCCCCC(=O)OCC(CCCCCCC)CCCCCCCC)CC1 (centres unmarked) [YK-501, reference compound] |  |  |  |  |  |  |  | 63 | 346241 | 174776 | 55543 | 5634 | 0 | 0 | 0 | 0 | 14224 | 3334 | Relative light unit (RLU) (293T cells [2]): 46243 RLU
3 | 11.9 | 132 | CCCCCCCCCCOC(=O)CCCN(CCCCCC(=O)OCCC(CCCCCC)CCCCCC)CCNC(CO)(CO)CCc1ccc(CCCCCCCC)cc1 [YK-909, 3-hexylnonyl 6-((4-(decyloxy)-4-oxobutyl) (2-((1-hydroxy-2-(hydroxymethyl)-4-(4-octylphenyl)butan-2-yl)amino)ethyl)amino) hexanoate] | 6.71 | 33.44 | 8.05 | 71.44 | 4.75 | 146.62 | 10.36 | 92 | 12924543 | 1322432 | 576433 | 87433 | 0 | 0 | 0 | 0 | 204435 | 9131 | Cellular transfection efficiency, times that of YK-906 (293T cells [2]; Fluc-mRNA LNP, vs YK-906): 246 times and 246.15 times; Cellular transfection efficiency, times that of compound 7 (293T cells [2]; Fluc-mRNA LNP): 26.33 times; Cell viability higher than that of YK-906 (293T cells [3]; difference vs YK-906): 29%; Expression level of mRNA in the spleen, times that of SM-102 (female BALB/C mice [5]; 6 h): 8.00 times; Expression level of mRNA in the spleen, times that of YK-501 (female BALB/C mice [5]; 6 h): 14.37 times; Expression level of mRNA in the spleen, times that of YK-506 (female BALB/C mice [5]; 6 h): 2.87 times
4 | 13.5 | 145 | CCCCCCCCCCCOC(=O)CCCCCN(CCO)CCCCCCCC(=O)OC(CCCCCCCC)CCCCCCCC [SM-102, reference compound] |  |  |  |  |  |  |  | 82 | 2144435 | 314533 | 134554 | 9243 | 0 | 0 | 0 | 0 | 25547 | 24365 | Relative light unit (RLU) (293T cells [2]): 1428141 RLU; Expression level in the liver, times that of YK-908 (female BALB/C mice [5]; liver, 6 h, vs YK-908): 17.12 times; Expression level in the liver, times that of YK-909 (female BALB/C mice [5]; liver, 6 h, vs YK-909): 2.67 times; Expression level in the liver, times that of YK-910 (female BALB/C mice [5]; liver, 6 h, vs YK-910): 2.13 times
